Experimental data taken from patent US20080009418A1, “Selective Inhibitors” (Alchemia LTD., priority 2004, published 2008).

Experiments:
Human κ-Opioid (KOP) = biological target: T1, Human κ-Opioid (KOP) (Homo sapiens, UniProt P41145); assay: Radioligand binding, human κ-opioid (KOP) membranes, filtration, [3H]-Diprenorphine; conditions: compound at 10 μM, [3H]-Diprenorphine
T1 construct: purchased Perkin Elmer Biosignal
Procedure, shortened: (§1)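 Filtration binding on cloned human receptor membranes (1 Unit/well), [125I]-Substance P for NK1 and [3H]-Diprenorphine for KOP, 1 h at room temperature. Filters PEI-presoaked, washed with cold 50 mM Tris-HCl pH 7.4, counted by scintillation; percent inhibition calculated, reference ligand defining non-specific binding.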

Human neurokinin (NK1) = biological target: T2, Human neurokinin (NK1) (Homo sapiens, UniProt P25103); assay: Radioligand binding, human neurokinin NK1 membranes, filtration, [125I]-Substance P; conditions: compound at 10 μM; [125I]-Substance P
T2 construct: purchased Perkin Elmer Biosignal
T2 sequence (P25103 whole entry): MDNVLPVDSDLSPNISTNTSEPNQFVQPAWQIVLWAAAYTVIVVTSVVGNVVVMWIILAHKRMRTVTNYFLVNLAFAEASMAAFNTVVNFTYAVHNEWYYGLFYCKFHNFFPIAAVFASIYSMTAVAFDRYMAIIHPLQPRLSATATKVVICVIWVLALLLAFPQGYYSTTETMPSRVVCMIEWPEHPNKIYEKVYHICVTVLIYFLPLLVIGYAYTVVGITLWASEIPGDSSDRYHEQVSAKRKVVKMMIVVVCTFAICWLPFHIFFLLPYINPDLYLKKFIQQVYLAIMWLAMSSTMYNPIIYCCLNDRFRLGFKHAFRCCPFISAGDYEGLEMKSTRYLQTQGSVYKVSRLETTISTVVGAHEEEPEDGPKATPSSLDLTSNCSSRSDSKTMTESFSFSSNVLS
Procedure, shortened: as §1

Mouse urotensin (mUR2) = biological target: T3, Mouse urotensin (mUR2) (Mus musculus, UniProt Q8VIH9); assay: Radioligand binding, mouse urotensin mUR2 membranes, FlashPlate, [125I]-Urotensin II; conditions: compound at 10 μM, [125I]-Urotensin II
T3 construct: purchased Perkin Elmer Biosignal
T3 sequence (Q8VIH9 1-385): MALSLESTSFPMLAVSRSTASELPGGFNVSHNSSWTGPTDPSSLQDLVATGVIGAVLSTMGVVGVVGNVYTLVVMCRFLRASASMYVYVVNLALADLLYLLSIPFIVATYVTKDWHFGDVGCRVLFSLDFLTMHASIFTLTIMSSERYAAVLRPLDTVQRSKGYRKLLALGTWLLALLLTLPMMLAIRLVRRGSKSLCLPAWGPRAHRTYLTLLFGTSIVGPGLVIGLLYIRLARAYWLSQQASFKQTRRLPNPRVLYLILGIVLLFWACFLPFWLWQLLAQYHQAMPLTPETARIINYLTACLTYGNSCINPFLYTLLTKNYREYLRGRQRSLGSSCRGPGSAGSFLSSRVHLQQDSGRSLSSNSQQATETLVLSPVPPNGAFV
Procedure, shortened: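 Cloned mouse urotensin (mUR2) receptor membranes from Perkin Elmer Biosignal were immobilized in FlashPlate microplates using a proprietary coating. Each well got 19.5 μl buffer, then 0.5 μl of DMSO, reference ligand, or compound. Adding 5 μl of [125I]-Urotensin II, diluted to 5× final concentration in binding buffer, started binding. Plates were sealed with TopSeal-A and incubated 1 hour at room temperature in the dark. Wells were counted for 30 seconds each on a TopCount after a 60-second delay, and percentage inhibition was calculated.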

[1] = biological target: T4, Human melanin-concentrating hormone (MCH1) (Homo sapiens, UniProt Q99705); assay: Radioligand binding, human melanin-concentrating hormone MCH1 membranes, FlashPlate, [125I]-S36057; conditions: compound at 10 μM; [125I]-S36057
T4 construct: purchased Perkin Elmer Biosignal
T4 sequence (Q99705 whole entry): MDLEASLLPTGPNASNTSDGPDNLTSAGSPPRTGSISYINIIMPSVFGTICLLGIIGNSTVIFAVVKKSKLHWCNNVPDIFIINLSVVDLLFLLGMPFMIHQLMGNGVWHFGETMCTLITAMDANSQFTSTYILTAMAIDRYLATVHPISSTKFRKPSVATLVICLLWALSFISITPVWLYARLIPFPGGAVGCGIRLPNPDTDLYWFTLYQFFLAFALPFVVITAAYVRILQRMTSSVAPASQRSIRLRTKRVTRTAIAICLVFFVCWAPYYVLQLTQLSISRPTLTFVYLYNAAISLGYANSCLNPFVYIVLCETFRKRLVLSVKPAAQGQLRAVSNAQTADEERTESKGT
Procedure, shortened: (§2)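 Cloned human receptor membranes were coated onto FlashPlate wells and incubated with radioligand and compound (added from a 0.5 mM DMSO daughter plate) for 1 hour at room temperature in the dark. Scintillation counting gave percent inhibition, with DMSO defining total and reference ligand defining non-specific binding.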

Human δ-opioid (DOP) = biological target: T5, Human δ-opioid (DOP) (Homo sapiens, UniProt P41143); assay: Radioligand binding, human δ-opioid (DOP) membranes, FlashPlate, [3H]-Bremazocine; conditions: compound at 10 μM; [3H]-Bremazocine
T5 construct: purchased Perkin Elmer Biosignal
T5 sequence (P41143 whole entry): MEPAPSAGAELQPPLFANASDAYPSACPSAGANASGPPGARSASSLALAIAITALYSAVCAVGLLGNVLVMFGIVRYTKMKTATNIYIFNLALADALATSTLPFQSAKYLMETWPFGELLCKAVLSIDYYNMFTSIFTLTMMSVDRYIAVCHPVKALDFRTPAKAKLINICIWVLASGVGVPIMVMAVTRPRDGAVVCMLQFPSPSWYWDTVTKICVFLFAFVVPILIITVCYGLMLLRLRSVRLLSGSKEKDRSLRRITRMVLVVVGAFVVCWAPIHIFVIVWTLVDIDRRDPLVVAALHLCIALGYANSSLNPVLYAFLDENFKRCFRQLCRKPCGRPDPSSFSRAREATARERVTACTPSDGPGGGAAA
Procedure, shortened: as §2

Human μ-opioid (MOP) = biological target: T6, Human μ-opioid (MOP) (Homo sapiens, UniProt P35372); assay: Radioligand binding, human μ-opioid (MOP) membranes, FlashPlate, [3H]-Naloxone; conditions: compound at 10 μM; [3H]-Naloxone
T6 construct: purchased Perkin Elmer Biosignal
T6 sequence (P35372 whole entry): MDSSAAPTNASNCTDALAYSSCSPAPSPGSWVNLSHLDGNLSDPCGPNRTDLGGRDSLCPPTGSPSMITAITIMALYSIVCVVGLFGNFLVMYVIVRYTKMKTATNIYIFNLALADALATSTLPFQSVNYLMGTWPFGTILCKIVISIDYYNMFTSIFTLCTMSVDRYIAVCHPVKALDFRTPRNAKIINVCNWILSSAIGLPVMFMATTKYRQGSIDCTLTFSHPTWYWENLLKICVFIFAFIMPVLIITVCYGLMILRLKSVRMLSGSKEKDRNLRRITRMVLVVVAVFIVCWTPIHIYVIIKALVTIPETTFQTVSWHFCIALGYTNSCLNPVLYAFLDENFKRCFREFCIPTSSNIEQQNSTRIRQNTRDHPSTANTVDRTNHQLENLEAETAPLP
Procedure, shortened: as §2

[2] = biological target: T7, Human neuropeptide Y (NPY-Y1) (Homo sapiens, UniProt P25929); assay: Radioligand binding, human neuropeptide Y NPY-Y1 membranes, FlashPlate, [125I]-PYY; conditions: compound at 10 μM, [125I]-PYY
T7 construct: purchased Perkin Elmer Biosignal
T7 sequence (P25929 1-384): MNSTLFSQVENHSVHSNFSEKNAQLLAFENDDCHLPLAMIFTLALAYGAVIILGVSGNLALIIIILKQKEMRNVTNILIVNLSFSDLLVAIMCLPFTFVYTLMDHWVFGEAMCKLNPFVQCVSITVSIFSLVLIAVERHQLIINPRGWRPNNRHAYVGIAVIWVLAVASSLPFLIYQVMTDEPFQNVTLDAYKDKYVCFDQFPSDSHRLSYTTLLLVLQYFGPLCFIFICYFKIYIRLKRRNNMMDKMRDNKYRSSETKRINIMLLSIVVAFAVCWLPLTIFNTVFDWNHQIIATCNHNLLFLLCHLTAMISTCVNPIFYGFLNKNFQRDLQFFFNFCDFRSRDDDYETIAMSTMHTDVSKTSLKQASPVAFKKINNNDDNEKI
Procedure, shortened: as §2

Human Melanocortin (MC4) = biological target: T8, Human Melanocortin (MC4) (Homo sapiens, UniProt P32245); assay: Radioligand binding, human melanocortin MC4 membranes, FlashPlate, [125I]-NDP-αMSH; conditions: compound at 10 μM; [125I]-NDP-αMSH
T8 construct: purchased Perkin Elmer Biosignal
T8 sequence (P32245 whole entry): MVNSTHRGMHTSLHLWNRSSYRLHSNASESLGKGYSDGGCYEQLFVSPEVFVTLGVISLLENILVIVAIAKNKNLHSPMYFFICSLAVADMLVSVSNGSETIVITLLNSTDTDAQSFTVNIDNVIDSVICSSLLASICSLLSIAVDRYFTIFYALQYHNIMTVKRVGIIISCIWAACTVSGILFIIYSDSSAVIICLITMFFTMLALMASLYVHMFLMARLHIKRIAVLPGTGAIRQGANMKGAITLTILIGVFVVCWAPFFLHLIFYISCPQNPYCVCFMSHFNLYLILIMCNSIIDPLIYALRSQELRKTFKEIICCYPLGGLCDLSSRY
Procedure, shortened: as §2

Human Melanocortin (MC3) = biological target: T9, Human Melanocortin (MC3) (Homo sapiens, UniProt P41968); assay: Radioligand binding, human melanocortin MC3 membranes, FlashPlate, [125I]-NDP-αMSH; conditions: compound at 10 μM; [125I]-NDP-αMSH
T9 construct: purchased Perkin Elmer Biosignal
T9 sequence (P41968 whole entry): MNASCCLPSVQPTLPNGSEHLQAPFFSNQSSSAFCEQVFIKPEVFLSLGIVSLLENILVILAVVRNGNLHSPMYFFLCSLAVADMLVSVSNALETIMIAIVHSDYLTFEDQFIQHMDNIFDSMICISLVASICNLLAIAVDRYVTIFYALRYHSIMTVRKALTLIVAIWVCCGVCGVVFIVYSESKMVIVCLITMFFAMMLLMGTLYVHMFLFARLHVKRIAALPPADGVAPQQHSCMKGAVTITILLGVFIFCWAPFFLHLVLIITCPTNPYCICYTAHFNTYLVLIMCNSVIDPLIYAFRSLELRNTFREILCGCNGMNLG
Procedure, shortened: as §2

Human opioid (ORL1) = biological target: T10, Human opioid (ORL1) (Homo sapiens, UniProt P41146); assay: Radioligand binding, human opioid ORL1 membranes, FlashPlate, [125I]-Nociceptin; conditions: compound at 10 μM; [125I]-Nociceptin
T10 construct: purchased Perkin Elmer Biosignal
T10 sequence (P41146 whole entry): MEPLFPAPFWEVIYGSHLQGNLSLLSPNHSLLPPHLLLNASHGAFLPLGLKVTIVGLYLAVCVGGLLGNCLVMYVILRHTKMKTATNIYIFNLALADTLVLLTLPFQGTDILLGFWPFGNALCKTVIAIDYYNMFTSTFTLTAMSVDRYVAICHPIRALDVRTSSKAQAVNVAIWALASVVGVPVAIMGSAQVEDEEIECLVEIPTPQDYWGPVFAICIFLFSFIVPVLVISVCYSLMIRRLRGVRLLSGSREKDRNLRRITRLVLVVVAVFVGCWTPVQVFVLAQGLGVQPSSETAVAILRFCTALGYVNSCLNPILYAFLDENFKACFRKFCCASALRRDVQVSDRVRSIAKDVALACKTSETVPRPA
Procedure, shortened: as §2

Human melanocortin (MC5) = biological target: T11, Human melanocortin (MC5) (Homo sapiens, UniProt P33032); assay: Radioligand binding, human melanocortin MC5 membranes, FlashPlate, [125I]-NDP-αMSH; conditions: compound at 10 μM; [125I]-NDP-αMSH
T11 construct: purchased Perkin Elmer Biosignal
T11 sequence (P33032 whole entry): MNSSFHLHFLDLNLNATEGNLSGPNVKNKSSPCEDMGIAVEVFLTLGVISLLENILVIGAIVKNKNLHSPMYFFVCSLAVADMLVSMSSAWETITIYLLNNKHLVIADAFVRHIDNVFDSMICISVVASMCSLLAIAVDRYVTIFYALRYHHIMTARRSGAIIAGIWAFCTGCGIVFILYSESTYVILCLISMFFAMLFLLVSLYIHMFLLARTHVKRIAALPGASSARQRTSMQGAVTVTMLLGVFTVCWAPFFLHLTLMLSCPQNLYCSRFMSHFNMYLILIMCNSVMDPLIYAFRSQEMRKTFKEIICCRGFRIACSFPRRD
Procedure, shortened: as §2

T1 sequence (P41145 whole entry): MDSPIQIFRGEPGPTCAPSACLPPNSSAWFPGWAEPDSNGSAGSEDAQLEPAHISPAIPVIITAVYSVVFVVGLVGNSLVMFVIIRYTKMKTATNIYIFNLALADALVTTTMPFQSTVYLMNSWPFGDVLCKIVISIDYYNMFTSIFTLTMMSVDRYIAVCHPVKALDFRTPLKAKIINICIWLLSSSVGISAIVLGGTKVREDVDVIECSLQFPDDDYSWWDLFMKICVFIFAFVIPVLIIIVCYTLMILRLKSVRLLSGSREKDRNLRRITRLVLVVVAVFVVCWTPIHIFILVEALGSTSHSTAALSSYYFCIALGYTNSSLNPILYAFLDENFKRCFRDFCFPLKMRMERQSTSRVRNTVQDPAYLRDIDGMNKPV

SMILES	A2: inhibition of radioligand binding, human κ-opioid (KOP) (Human κ-Opioid (KOP))	A8: inhibition of radioligand binding, human neurokinin (NK1) (Human neurokinin (NK1))	A11: inhibition of radioligand binding, mouse urotensin (mUR2) (Mouse urotensin (mUR2))	A6: inhibition of radioligand binding, human melanin-concentrating hormone (MCH1) [1]	A1: inhibition of radioligand binding, human δ-opioid (DOP) (Human δ-opioid (DOP))	A7: inhibition of radioligand binding, human μ-opioid (MOP) (Human μ-opioid (MOP))	A9: inhibition of radioligand binding, human neuropeptide Y (NPY-Y1) [2]	A4: inhibition of radioligand binding, human melanocortin (MC4) (Human Melanocortin (MC4))	A3: inhibition of radioligand binding, human melanocortin (MC3) (Human Melanocortin (MC3))	A10: inhibition of radioligand binding, human opioid (ORL1) (Human opioid (ORL1))	A5: inhibition of radioligand binding, human melanocortin (MC5) (Human melanocortin (MC5))	other results
CSC1OC(COCc2ccc(Cl)cc2)C(O)C(OCc2ccc3ccccc3c2)C1NC(=O)CNC(=N)N (stereo not shown) [compound 307]	− (“−” indicates less than 50% inhibition at 10 μM)	+ (“+” indicates greater than 50% inhibition at 10 μM)	− (“−” indicates less than 50% inhibition at 10 μM)	− (“−” indicates less than 50% inhibition at 10 μM)	− (“−” indicates less than 50% inhibition at 10 μM)	− (“−” indicates less than 50% inhibition at 10 μM)	− (“−” indicates less than 50% inhibition at 10 μM)	+ (“+” indicates greater than 50% inhibition at 10 μM)	+ (“+” indicates greater than 50% inhibition at 10 μM)	− (“−” indicates less than 50% inhibition at 10 μM)	+ (“+” indicates greater than 50% inhibition at 10 μM)	
NCCCC(=O)NC1C(OCc2ccccc2)OC(COCc2ccc(Cl)cc2)C(O)C1OCc1ccc(Cl)cc1 (stereo not shown) [compound 374]	− (“−” indicates less than 50% inhibition at 10 μM)	+ (“+” indicates greater than 50% inhibition at 10 μM)	− (“−” indicates less than 50% inhibition at 10 μM)	− (“−” indicates less than 50% inhibition at 10 μM)	− (“−” indicates less than 50% inhibition at 10 μM)	− (“−” indicates less than 50% inhibition at 10 μM)	− (“−” indicates less than 50% inhibition at 10 μM)	+ (“+” indicates greater than 50% inhibition at 10 μM)	− (“−” indicates less than 50% inhibition at 10 μM)	− (“−” indicates less than 50% inhibition at 10 μM)	+ (“+” indicates greater than 50% inhibition at 10 μM)	
N=C(N)NCCC(=O)N[C@H]1C(OCc2ccc(Cl)cc2)O[C@H](COCc2ccc(Cl)cc2)[C@@H](O)[C@@H]1OCc1ccc(-c2ccccc2)cc1 (stereo partly shown) [compound 538]		+ (“+” indicates greater than 50% inhibition at 10 μM)		+ (“+” indicates greater than 50% inhibition at 10 μM)	− (“−” indicates less than 50% inhibition at 10 μM)	− (“−” indicates less than 50% inhibition at 10 μM)		+ (“+” indicates greater than 50% inhibition at 10 μM)	+ (“+” indicates greater than 50% inhibition at 10 μM)	+ (“+” indicates greater than 50% inhibition at 10 μM)	+ (“+” indicates greater than 50% inhibition at 10 μM)	A2: inhibition of radioligand binding, human κ-opioid (KOP) (Human κ-Opioid (KOP); 10 µM): + (“+” indicates greater than 50% inhibition at 10 μM); A11: inhibition of radioligand binding, mouse urotensin (mUR2) (Mouse urotensin (mUR2); 10 µM): + (“+” indicates greater than 50% inhibition at 10 μM); A9: inhibition of radioligand binding, human neuropeptide Y (NPY-Y1) ([2]; 10 µM): + (“+” indicates greater than 50% inhibition at 10 μM)
CO[C@H]1[C@H](O)[C@@H](COCc2ccc3ccccc3c2)OC(OCc2cccc(O)c2)[C@@H]1NC(=O)CNC(=N)N (stereo partly shown) [compound 165]												A2 radioligand binding, percentage inhibition (Human κ-Opioid (KOP)): − (“−” indicates less than 50% inhibition at 10 μM); A8 radioligand binding, percentage inhibition (Human neurokinin (NK1)): + (“+” indicates greater than 50% inhibition at 10 μM); A11 radioligand binding, percentage inhibition (Mouse urotensin (mUR2)): − (“−” indicates less than 50% inhibition at 10 μM); A6 radioligand binding, percentage inhibition [1]: − (“−” indicates less than 50% inhibition at 10 μM); A1 radioligand binding, percentage inhibition (Human δ-opioid (DOP)): − (“−” indicates less than 50% inhibition at 10 μM); A7 radioligand binding, percentage inhibition (Human μ-opioid (MOP)): − (“−” indicates less than 50% inhibition at 10 μM); A9 radioligand binding, percentage inhibition [2]: − (“−” indicates less than 50% inhibition at 10 μM); A4 radioligand binding, percentage inhibition (Human Melanocortin (MC4)): − (“−” indicates less than 50% inhibition at 10 μM); A3 radioligand binding, percentage inhibition (Human Melanocortin (MC3)): − (“−” indicates less than 50% inhibition at 10 μM); A10 radioligand binding, percentage inhibition (Human opioid (ORL1)): − (“−” indicates less than 50% inhibition at 10 μM); A5 radioligand binding, percentage inhibition (Human melanocortin (MC5)): − (“−” indicates less than 50% inhibition at 10 μM)
NCCC(=O)NC1C(OCc2ccccc2)OC(COCc2ccccc2)C(O)C1OCc1ccc(Cl)cc1 (stereo not shown) [compound 365]	− (“−” indicates less than 50% inhibition at 10 μM)	+ (“+” indicates greater than 50% inhibition at 10 μM)	− (“−” indicates less than 50% inhibition at 10 μM)	− (“−” indicates less than 50% inhibition at 10 μM)	− (“−” indicates less than 50% inhibition at 10 μM)	− (“−” indicates less than 50% inhibition at 10 μM)	− (“−” indicates less than 50% inhibition at 10 μM)	− (“−” indicates less than 50% inhibition at 10 μM)	− (“−” indicates less than 50% inhibition at 10 μM)	− (“−” indicates less than 50% inhibition at 10 μM)	− (“−” indicates less than 50% inhibition at 10 μM)	
